SMILES strings stand for the structures. Some results are limits rather than exact numbers.

Holding throughout (details): treatment: drug + dasatinib (fixed dose, not stated); 5 days
Assay [1] has as its system 769-P. The assay can be described thus: GI50 of drug in presence of dasatinib; higher = less potent. As to the method:
(§1)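 Primary HTS combination arm: 8 RCC cell lines treated with 8 doses (up to 10 uM) of each library drug plus a fixed dose of dasatinib (dose not stated) for 5 days; viability read by CellTiter-Glo and normalised to DMSO. GI50 was fitted with XLfit, AUC is the area under the dose-response curve, and minimum viability is the lowest fraction of DMSO viability across doses.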

The test system of assay [2] is 786-O. The description is as above. As to the method: as §1
The subject of assay [3] is A498. The assay is described as above. As to the method: as §1
Assay [4] deals with ACHN. Described as above. As to the method: as §1
In assay [5] the test system is CAKI-1. The description is as above. On the procedure: as §1
For assay [6], the system named is SN12C. The assay is described as above. As to the method: as §1
Assay [7] concerns TK-10. Described as above. As to the method:
as §1

The test system of assay [8] is UO-31. Described as above. As to the method: as §1
Assay [9] concerns 769-P. Kind of assay: minimum viability across doses, drug + dasatinib, relative to DMSO (fraction); higher = less growth inhibition. On the procedure:
as §1

Assay [10] has as its system 786-O. Described as above. As to the method:
as §1

For assay [11], the system named is A498. The description is as above. On the procedure:
as §1

Assay [12] relates to ACHN. Described as above. On the procedure:
as §1

The subject of assay [13] is CAKI-1. The assay is described as above. On the procedure: as §1
For assay [14], the system named is SN12C. The description is as above. On the procedure:
as §1

Assay [15] has as its system TK-10. Described as above. On the procedure: as §1
The test system of assay [16] is UO-31. The assay is described as above. As to the method:
as §1

Assay [17] concerns 769-P. The assay can be described thus: AUC of dose-response viability curve, drug + dasatinib, normalised to DMSO (arbitrary (AUC of normalised viability)); higher = less growth inhibition. On the procedure:
as §1

For assay [18], the system named is 786-O. The assay is described as above. On the procedure: as §1
The subject of assay [19] is A498. The description is as above. As to the method:
as §1

In assay [20] the test system is ACHN. The description is as above. On the procedure: as §1
The test system of assay [21] is CAKI-1. Described as above. On the procedure: as §1
Assay [22] concerns SN12C. The assay is described as above. As to the method:
as §1

For assay [23], the system named is TK-10. The assay is described as above. As to the method:
as §1

In assay [24] the test system is UO-31. The assay is described as above. On the procedure: as §1

`Cc1ccc(Nc2nccc(N(C)c3ccc4c(C)n(C)nc4c3)n2)cc1S(N)(=O)=O.Cl` [Pazopanib HCl] + Cc1nc(Nc2ncc(C(=O)Nc3c(C)cccc3Cl)s2)cc(N2CCN(CCO)CC2)n1 [dasatinib]: the GI50 of drug in [1] was 8.32 µM; in [2], below 0.003 µM; in [3] it was above 10 µM; in [4], 1.34 µM; in [5], 0.925 µM; in [6], 3.1 µM. The GI50 of drug in assay [7] was 8.59 µM; in assay [8], 8.02 µM. In addition, the “minimum viability across doses” value in assay [9] turned out to be 0.123; in assay [10], 0.277; in assay [11], 0.522; in assay [12], 0.175; in [13], 0.0765; in assay [14], 0.327. Besides, the “minimum viability across doses” value in assay [15] was 0.469; in [16], 0.248. Further, the “AUC of dose-response viability curve” value was found to be 2.22 in assay [17]; 2.29 in assay [18]; 3.16 in assay [19]; 2.13 in assay [20]; 1.86 in assay [21]; 2.37 in assay [22]. In addition, the “AUC of dose-response viability curve” value in [23] is 2.54; in assay [24], 3.27.

For `CCOc1cc2ncc(C#N)c(Nc3ccc(F)c(Cl)c3)c2cc1NC(=O)/C=C/CN(C)C` [Pelitinib (EKB-569)] + Cc1nc(Nc2ncc(C(=O)Nc3c(C)cccc3Cl)s2)cc(N2CCN(CCO)CC2)n1 [dasatinib], the GI50 of drug was 0.0484 µM in [1]; 0.404 µM in [2]; 1.08 µM in assay [3]; 0.00721 µM in assay [4]; 0.0606 µM in assay [5]; 0.864 µM in [6]. The GI50 of drug in assay [7] came to 0.0611 µM; in [8], 0.216 µM. Besides, the “minimum viability across doses” value in assay [9] amounted to 0.0321; in assay [10] it was 0.00483; in assay [11], 0.0177; in assay [12], 0.00232; in assay [13] it was 0.0303; in [14], 0.00631. The results for the “minimum viability across doses” value in assay [15] and in [16] were 0.00649 and 0.0179, respectively. In addition, the “AUC of dose-response viability curve” value came out at 1.38 in assay [17]; 1.79 in assay [18]; 2.55 in assay [19]; 0.845 in assay [20]; 1.17 in assay [21]; 1.78 in [22]. The “AUC of dose-response viability curve” value in assay [23] stood at 1.43; in [24], 1.8.

As to `Cl.N=C(N)NC(=N)NCCc1ccccc1` [Phenformin hydrochloride] + Cc1nc(Nc2ncc(C(=O)Nc3c(C)cccc3Cl)s2)cc(N2CCN(CCO)CC2)n1 [dasatinib], the GI50 of drug in assay [1] is above 10 µM; in assay [2], 1.06 µM; in assay [3], above 10 µM; in [4], 3.14 µM; in [5], above 10 µM; in [6], 4.33 µM. Moreover, the GI50 of drug in assay [7] amounted to 5.02 µM; in assay [8], 4.39 µM. For the same compound, the “minimum viability across doses” value in [9] is 0.623; in assay [10] it was 0.115; in assay [11], 0.676; in [12], 0.357; in assay [13], 0.578; in [14], 0.114. Also, the “minimum viability across doses” value in assay [15] worked out at 0.315; in assay [16], 0.194. Further, the “AUC of dose-response viability curve” value was 2.41 in [17]; 1.84 in assay [18]; 3.25 in assay [19]; 2.08 in assay [20]; 2.28 in [21]; 2.36 in assay [22]. Moreover, the entries for the “AUC of dose-response viability curve” value in assay [23] and in assay [24] were 2.35 and 2.83, respectively.

Regarding `Br.Cc1ccc(C(=O)Cn2c3c(sc2=N)CCCC3)cc1` [Pifithrin-α] + Cc1nc(Nc2ncc(C(=O)Nc3c(C)cccc3Cl)s2)cc(N2CCN(CCO)CC2)n1 [dasatinib], the GI50 of drug was above 10 µM in [1]; above 10 µM in [2]; above 10 µM in assay [3]; 3.78 µM in [4]; above 10 µM in assay [5]; above 10 µM in assay [6]. Besides, the GI50 of drug in [7] and in assay [8] was above 10 µM each time. The “minimum viability across doses” value in assay [9] worked out at 0.696; in [10] it was 0.535; in [11], 0.901; in assay [12] it was 0.391; in assay [13] it was 0.529; in assay [14], 0.656. In addition, the “minimum viability across doses” value turned out to be 0.59 in [15] and 0.998 in assay [16]. The “AUC of dose-response viability curve” value in [17] came to 2.63; in assay [18], 2.26; in [19], 3.57; in assay [20], 2.03; in assay [21], 2.13; in assay [22], 2.53. Moreover, the “AUC of dose-response viability curve” value in assay [23] worked out at 2.3; in assay [24], 4.02.

With `Nc1cccc2c1C(=O)N(C1CCC(=O)NC1=O)C2=O` (centres undefined) [Pomalidomide] + Cc1nc(Nc2ncc(C(=O)Nc3c(C)cccc3Cl)s2)cc(N2CCN(CCO)CC2)n1 [dasatinib], the GI50 of drug in assay [1], in assay [2], in assay [3], in assay [4], in [5] and in assay [6] was above 10 µM throughout. Moreover, the GI50 of drug in assay [7] and in [8] was above 10 µM throughout. Besides, the “minimum viability across doses” value in assay [9] was determined as 0.65; in assay [10], 0.617; in [11], 0.857; in assay [12], 0.542; in [13] it was 0.642; in assay [14] it was 0.711. For the same compound, the “minimum viability across doses” value in assay [15] was determined as 0.639; in assay [16] it was 0.868. The “AUC of dose-response viability curve” value in assay [17] was 2.65; in assay [18] it was 2.67; in assay [19], 3.27; in assay [20] it was 2.15; in assay [21], 2.38; in [22] it was 2.58. The “AUC of dose-response viability curve” value in [23] amounted to 2.5; in assay [24], 3.3.

As to `O=c1c(O)c(-c2ccc(O)c(O)c2)oc2cc(O)cc(O)c12` [Quercetin (Sophoretin)] + Cc1nc(Nc2ncc(C(=O)Nc3c(C)cccc3Cl)s2)cc(N2CCN(CCO)CC2)n1 [dasatinib], the GI50 of drug in [1], in [2], in assay [3], in [4], in [5] and in assay [6] was above 10 µM each time. Moreover, the GI50 of drug in assay [7] and in assay [8] was above 10 µM each time. Moreover, the “minimum viability across doses” value is 0.618 in [9]; 0.45 in assay [10]; 0.879 in assay [11]; 0.56 in assay [12]; 0.576 in assay [13]; 0.692 in assay [14]. For the same compound, the “minimum viability across doses” value in assay [15] is 0.67; in assay [16] it was 0.844. Moreover, the “AUC of dose-response viability curve” value in assay [17] came to 2.42; in [18], 1.89; in assay [19] it was 3.26; in assay [20] it was 2.14; in assay [21] it was 2.35; in assay [22], 2.52. The “AUC of dose-response viability curve” value amounted to 2.47 in assay [23] and 3.51 in [24].

The record behind these values is the supplement of paper PMC8149375.
